According to patent US20250040548A1, “Herbicidal compositions comprising saflufenacil” (BASF SF, priority 2023, published 2025):

Legend:
ERICA [1] = test: Post-emergence application in field trials (Examples 2 and 3); assay type: in vivo, Erigeron canadensis; conditions: 21 DAT
Method: (§1) In the examples below, using the method of S. R. Colby (1967) “Calculating synergistic and antagonistic responses of herbicide combinations”, Weeds 15, p. 22ff., the value E, which is expected if the activity of the individual active compounds is only additive, was calculated.
(§2) [formula] • where • X=percent activity using active herbicide A at an application rate a; • Y=percent activity using active saflufenacil at an application rate b; • E=expected activity (in %) by A+B at application rates a+b.
(§3) If the value found experimentally is higher than the value E calculated according to Colby, a synergistic effect is present.
(§4) On field test sites, natural weed infestation or seeded weeds were treated post-emergence of the weeds.
(§5) For the post emergence treatment, the weedy plants were treated as indicated below. The herbicidal compositions were, together with the adjuvant(s) as indicated, suspended or emulsified in water (200 l/ha unless indicated otherwise) as distribution medium and sprayed with commercial flat fan nozzles.
(§6) In the following experiments, the herbicidal activity for the individual herbicidal compositions (solo and mixture applications) was assessed the indicated days after treatment (DAT). The assessments for the damage on undesired weeds caused by the composition was carried out using a scale from 0 to 100%, compared to the untreated control plants. Here, 0 means no damage and 100 means complete destruction of the plants.
(§7) For the post emergence treatment, the weedy plants were treated as indicated below. The herbicidal compositions were, together with the adjuvant(s) as indicated, suspended or emulsified in water (200 I/ha unless indicated otherwise) as distribution medium and sprayed with commercial flat fan nozzles.

ELEIN = test: as above; assay type: in vivo, Eleusine indica
Method: as §1, §2, §3, §4, §5, §6, §7

STEME = test: as above; assay type: in vivo, Stellaria media; conditions: A-1 12.5 g ai/ha, 21 DAT, growth stage 63-67, height 7-18 cm, 140 l/ha water, 1% MSO + 2.5% ammoniumsulfate
Method: as §1, §2, §3, §4, §5
(§8) In the following experiments, the herbicidal activity for the individual herbicidal compositions (solo and mixture applications) was assessed the indicated days after treatment (DAT). The assessments for the damage on undesired weeds caused by the composition was carried out using a scale from 0 to 100%, compared to the untreated control plants. […]

ECHCG [2] = test: as above; assay type: in vivo, Echinocloa crus-galli
Method: as §1, §2, §3, §4, §5, §6, §7

SETFA = test: Post-emergence application in greenhouse trials; assay type: in vivo, Setaria faberi; conditions: 7 DAT, growth stage 13, 1% MSO
Method: as §1, §2, §3
(§9) The culture containers used were plastic pots containing loamy sand with approximately 3.0% of humus as substrate. The seeds of the test plants were sown separately for each species.
(§10) For the post-emergence treatment, the test plants were grown to a plant height of from 3 to 15 cm, depending on the plant habit, and only then treated with the active compounds which had been suspended or emulsified in water. To this end, the test plants were either sown directly, and grown in the same containers, or they were first grown separately as seedlings and transplanted into the test containers a few days prior to treatment.
(§11) Depending on the species, the plants were kept at 10-25° C. and 20-35° C., respectively.
(§12) The test period extended over 2 to 4 weeks. During this time, the plants were tended and their response to the individual treatments was evaluated.
(§13) Evaluation was carried out using a scale from 0 to 100. 100 means no emergence of the plants, or complete destruction of at least the above-ground parts, and 0 means no damage or normal course of growth. A good herbicidal activity is given at values of at least 70, and very good herbicidal activity is given at values of at least 85.
(§14) Unless indicated otherwise, herbicide A and saflufenacil were formulated (50 g/I) and applied with addition of 1% MSO (methylated seed oil) as adjuvant. In the greenhouse trials, the solvent used was water (200 I/ha).

POAAN = test: Post-emergence application in field trials (Examples 2 and 3); assay type: in vivo, Poa annua
Method: as §1, §2, §3, §4, §5, §6, §7

EPHHL = test: as above; assay type: in vivo, Euphorbia heterophylla; conditions: A-1 25 g ai/ha, 21 DAT, growth stage 12-16, height 5-15 cm, 0.5% MSO
Method: as §1, §2, §3, §4, §5, §8

SETIT = test: as above; assay type: in vivo, Setaria italica; conditions: height 21-31 cm, A-1 solo 40 g ai/ha, 22 DAT, 1% v/v MSO
Method: as §1, §2, §3, §4, §5, §8

ECHCG [3] = test: Post-emergence application in greenhouse trials; assay type: in vivo, Echinocloa crus-galli; conditions: A-1 1.56 g ai/ha, growth stage 13, saflufenacil as commercial 342 g/l SC formulation
Method: as §1, §2, §3, §9, §10, §11, §12, §13, §14

AVEST = test: Post-emergence application in field trials (Examples 2 and 3); assay type: in vivo, Avena stirilis; conditions: growth stage 12-22, A-1 solo 12.5 g ai/ha, 14 DAT, 1% v/ MSO
Method: as §1, §2, §3, §4, §5, §8

AVEFA = test: as above; assay type: in vivo, Avena fatua; conditions: 1% v/v MSO
Method: as §1, §2, §3, §4, §5, §6, §7

CHEAL = test: Post-emergence application in greenhouse trials; assay type: in vivo, Chenopodium album; conditions: A-1 3.12 g ai/ha, 21 DAT, growth stage 51, saflufenacil as commercial 342 g/l SC formulation
Method: as §1, §2, §3, §9
For the post-emergence treatment, the test plants were grown to a plant height of from 3 to 15 cm, depending on the plant habit, and only then treated with the active compounds which had been suspended or emulsified in water. To this end, the test plants were either sown directly, and grown in the same containers, or they were first grown separately as seedlings and transplanted into the test containers a few days prior to treatment. […]
The test period extended over 2 to 4 weeks. During this time, the plants were tended and their response to the individual treatments was evaluated. […]

[4] = tested on: SORVU* (non-PPOi herbicide tolerant); test: Post-emergence application in field trials (Examples 2 and 3); assay type: in vivo, Sorghum vulgare
Method: as §1, §2, §3, §4, §5, §6, §7

ERICA [5] = test: Post-emergence application in greenhouse trials; assay type: in vivo, Erigeron canadensis; conditions: 21 DAT, growth stage 31, saflufenacil as commercial 342 g/l SC formulation
Method: as §1, §2, §3, §9, §10, §11, §12, §13, §14

## CCOC(=O)COc1ccccc1Oc1nc(-n2c(=O)cc(C(F)(F)F)n(C)c2=O)c(F)cc1Cl [A-1, ethyl 2-[2-[[3-chloro-5-fluoro-6-[3-methyl-2,6-dioxo-4-(trifluoromethyl)pyrimidin-1-yl]-2-pyridyl]oxy]phenoxy]acetate]
ERICA [1]; A-1 6.25 g ai/ha, height 12.5-25 cm, field, 140 l/ha water, 1% MSO + 2.5% ammoniumsulfate
  % Herbicidal activity: 7%
ERICA [1]; A-1 12.5 g ai/ha, height 12.5-25 cm, field, 140 l/ha water, 1% MSO + 2.5% ammoniumsulfate
  % Herbicidal activity: 17%
ERICA [1]; ERICA, height 5-10 cm, A-1 solo 25 g ai/ha, 1% v/v MSO and 1% AMS (ammonium sulfate)
  % Herbicidal activity: 60%
ELEIN; A-1 12.5 g ai/ha, 21 DAT, height 1-15 cm, 140 l/ha water, 1% MSO + 2.5% ammoniumsulfate
  % Herbicidal activity: 49%
ELEIN; A-1 12.5 g ai/ha, 21 DAT, height 7-10 cm, 1% v/v MSO and 1% w/v ammoniumsulfate
  % Herbicidal activity: 18%
ELEIN; A-1 12.5 g ai/ha, 21 DAT, height 15-20 cm, 1% v/v MSO and 1% w/v ammoniumsulfate
  % Herbicidal activity: 27%
ELEIN; A-1 25 g ai/ha, 19 DAT, growth stage 24, 0.5% MSO
  % Herbicidal activity: 68%
ELEIN; A-1 25 g ai/ha, 21 DAT, height 7-10 cm, 1% v/v MSO and 1% w/v ammoniumsulfate
  % Herbicidal activity: 78%
ELEIN; A-1 25 g ai/ha, 21 DAT, height 15-20 cm, 1% v/v MSO and 1% w/v ammoniumsulfate
  % Herbicidal activity: 55%
ELEIN; A-1 50 g ai/ha, 19 DAT, growth stage 24, 0.5% MSO
  % Herbicidal activity: 73%
STEME
  % Herbicidal activity: 83%
ECHCG [2]; A-1 12.5 g ai/ha, 14 DAT, growth stage 14-19, height 2-8 cm, field, 140 l/ha water, 1% MSO + 2.5% ammoniumsulfate
  % Herbicidal activity: 75%
ECHCG [2]; A-1 25 g ai/ha, 21 DAT, height 12.5-30 cm, field, 1% v/v MSO and 1% w/v ammoniumsulfate
  % Herbicidal activity: 58%
ECHCG [2]; ECHCG, growth stage 21-23, height 43-44 cm, A-1 solo 30 g ai/ha, 21 DAT, 1% Dash ® HC
  % Herbicidal activity: 52%
SETFA; A-1 0.2 g ai/ha
  % Herbicidal activity: 35%
SETFA; A-1 0.3 g ai/ha
  % Herbicidal activity: 55%
SETFA; A-1 0.4 g ai/ha
  % Herbicidal activity: 65%
SETFA; A-1 0.5 g ai/ha
  % Herbicidal activity: 80%
POAAN; A-1 12.5 g ai/ha, 21 DAT, growth stage 55-65, height 10-15 cm, field, 140 l/ha water, 1% MSO + 2.5% ammoniumsulfate
  % Herbicidal activity: 33%
POAAN; POAAN, height 2.5-4 cm, A-1 solo 12.5 g ai/ha, 7 DAT, 1% v/v MSO
  % Herbicidal activity: 83%
POAAN; POAAN, height 2.5-4 cm, A-1 solo 25 g ai/ha, 7 DAT, 1% v/v MSO
  % Herbicidal activity: 88%
EPHHL
  % Herbicidal activity: 97%
SETIT
  % Herbicidal activity: 83%
ECHCG [3]; 7 DAT
  % Herbicidal activity: 70%
ECHCG [3]; 21 DAT
  % Herbicidal activity: 55%
AVEST
  % Herbicidal activity: 95%
AVEFA; A-1 18 g ai/ha, 28 DAT, growth stage 14-15, height 9-16 cm, field, 100 l/ha water
  % Herbicidal activity: 83%
AVEFA; A-1 18 g ai/ha, 29 DAT, growth stage 14-23, height 24-40 cm, field, 100 l/ha water
  % Herbicidal activity: 80%
AVEFA; AVEFA, growth stage 15-16, height 25-38 cm, A-1 solo 12.5 g ai/ha, 16 DAT
  % Herbicidal activity: 90%
AVEFA; AVEFA, growth stage 15-16, height 25-38 cm, A-1 solo 25 g ai/ha, 16 DAT
  % Herbicidal activity: 95%
AVEFA; AVEFA, growth stage 15-16, height 25-38 cm, A-1 solo 50 g ai/ha, 16 DAT
  % Herbicidal activity: 98%
CHEAL
  % Herbicidal activity: 65%
[4]; A-1 50 g ai/ha, 25 DAT, growth stage 14-15, field, 0.25 l/ha Dash MSO Max ®
  % Herbicidal activity: 93%
[4]; SORVU* (non-PPOi herbicide tolerant), height 21-31 cm, A-1 solo 30 g ai/ha, 22 DAT, 1% v/v MSO
  % Herbicidal activity: 96%
ERICA [5]; A-1 1.56 g ai/ha
  % Herbicidal activity: 10%
ERICA [5]; A-1 3.12 g ai/ha
  % Herbicidal activity: 10%
ERICA [5]; A-1 6.25 g ai/ha
  % Herbicidal activity: 30%
